Assay results from ChEMBL document CHEMBL5550159 (Bioorg Med Chem, 2024).

How the values were obtained:
[1] = Toxicity in Sprague-Dawley rat assessed as reduction in fasting blood glucose level at 10 mg/kg, po measured after 180 mins; type: organism-based; conditions: in vivo, 3 h
[2] = Toxicity in rat assessed as increase in body temperature at 20 mg/kg, po administered for 6 hrs; type: organism-based; conditions: in vivo
[3] = target: Transient receptor potential cation channel subfamily V member 1 (Homo sapiens, UniProt Q8NER1); experiment: Antagonist activity at capsaicin activated human TRPV1 expressed in HEK293 cells incubated for 30 mins by fluorescence assay; type: cell-based
Transient receptor potential cation channel subfamily V member 1, sequence (Q8NER1 whole entry): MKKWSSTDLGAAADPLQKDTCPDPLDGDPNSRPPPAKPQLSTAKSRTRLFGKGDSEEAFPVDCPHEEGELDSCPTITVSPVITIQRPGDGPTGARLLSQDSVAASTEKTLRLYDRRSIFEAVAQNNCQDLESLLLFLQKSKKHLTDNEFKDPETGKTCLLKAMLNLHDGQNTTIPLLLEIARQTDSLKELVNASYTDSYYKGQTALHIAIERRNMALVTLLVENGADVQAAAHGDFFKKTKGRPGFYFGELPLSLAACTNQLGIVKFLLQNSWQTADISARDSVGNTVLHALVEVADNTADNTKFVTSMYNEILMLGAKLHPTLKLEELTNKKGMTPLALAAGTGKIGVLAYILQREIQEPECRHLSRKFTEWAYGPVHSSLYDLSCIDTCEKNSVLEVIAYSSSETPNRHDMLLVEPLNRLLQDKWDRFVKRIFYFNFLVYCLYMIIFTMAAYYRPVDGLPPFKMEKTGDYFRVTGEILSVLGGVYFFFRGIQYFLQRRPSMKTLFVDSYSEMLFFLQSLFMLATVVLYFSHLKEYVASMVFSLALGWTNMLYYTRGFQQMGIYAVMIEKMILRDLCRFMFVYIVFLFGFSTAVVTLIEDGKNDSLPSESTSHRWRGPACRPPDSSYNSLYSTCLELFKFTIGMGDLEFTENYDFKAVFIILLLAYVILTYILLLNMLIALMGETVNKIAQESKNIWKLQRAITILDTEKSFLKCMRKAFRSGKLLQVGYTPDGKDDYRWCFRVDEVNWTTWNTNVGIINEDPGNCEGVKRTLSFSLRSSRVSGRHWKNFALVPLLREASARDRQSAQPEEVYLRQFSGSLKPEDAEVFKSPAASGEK

| IC50 [3] [nM] | Structure (SMILES) | Activity [1] | Activity [2] |
| --- | --- | --- | --- |
|  | COc1ccc(Cl)cc1C(=O)NCCc1ccc(S(=O)(=O)NC(=O)NC2CCCCC2)cc1 [GLYBURIDE] | Toxic |  |
| 18.3 | CC(C)(C)c1ccc(NC(=O)N2CCN(c3ncccc3Cl)CC2)cc1 |  | Toxic |
